In patent publication US5254546A, “Fused aryl substituted imidazole angiotensin II receptor inhibitors” (E. I. Du Pont de Nemours and Company, priority 1992, dated 1993):

What was measured:
Angiotensin II Receptor = experiment: AII receptor ligand-receptor binding assay (rat adrenal cortical microsomes, displacement of 3H-AII or 125I-AII); conditions: Table 7, 1 hour, room temperature
Procedure: The hormone angiotensin II (AII) produces numerous biological responses (e.g. vasoconstriction) through stimulation of its receptors on cell membranes. For the purpose of identifying compounds such as AII antagonists which are capable of interacting with the AII receptor, a ligand-receptor binding assay was utilized for the initial screen. The assay was carried out according to the method described by [Glossmann et al., J. Biol. Chem., 249, 825 (1974)], but with some modifications. The reaction mixture contained rat adrenal cortical microsomes (source of AII receptor) in Tris buffer and 2 nM of ^3 H-AII or 0.05 nM ^125 I-AII with or without potential AII antagonist. This mixture was incubated for 1 hour at room temperature and the reaction was subsequently terminated by rapid filtration and rinsing through glass micro-fibre filter. Receptor-bound ^3 H-AII or ^125 I-AII trapped in filter was quantitated by scintillation counting. The inhibitory concentration (IC50) of potential AII antagonist which gives 50% displacement of the total specifically bound ^3 H-AII or ^125 I-AII is a measure of the affinity of such compound for the AII receptor.

[1] = tested on: awake rats made hypertensive by ligation of the left renal artery; experiment: Antihypertensive effects in renal hypertensive rats (left renal artery ligation); type: in vivo, rat; conditions: for Antihypertensive Effects in Renal Hypertensive Rats, Intravenous Activity: 3 mg/kg; for Antihypertensive Effects in Renal Hypertensive Rats, Oral Activity: 30 mg/kg
Procedure: Blood pressure levels after treatment are compared to pretreatment levels to determine the antihypertensive effects of the compounds which were tested.

[2] = tested on: renal vasoconstrictor effect of indomethacin and meclofenamate in dogs; conditions: cited from earlier work
[3] = tested on: effects of AII on the blood pressure of pithed rats; conditions: cited from earlier work
mammals and man = conditions: cited from earlier work

Structure (SMILES)	IC50 (Angiotensin II Receptor) [nM]	Antihypertensive Effects in Renal Hypertensive Rats, Intravenous Activity [1]	Antihypertensive Effects in Renal Hypertensive Rats, Oral Activity [1]	also measured
CCCc1nc(-c2cc3ccccc3c3ccccc23)c(C=O)n1Cc1ccc(-c2ccccc2-c2nn[nH]n2)cc1 [Example 24]	170	+ (Significant decrease in blood pressure at 3.0 mg/kg or less)	NA (Not active at 3 mg/kg or 30 mg/kg dosage tested)	
C[C@H](CS)C(=O)N1CCC[C@H]1C(=O)O [captopril]				effect on renal vasoconstriction by NSAID [2]: reverse the renal vasoconstrictor effect of indomethacin in dogs with non-hypotensive hemorrhage
CCCc1nc(/C=C\c2cccc3ccccc23)c(C=O)n1Cc1ccc(-c2ccccc2-c2nn[nH]n2)cc1 [Example 95]	13	+ (Significant decrease in blood pressure at 3.0 mg/kg or less)	+ (Significant decrease in blood pressure at 30 mg/kg or less)	
CNCC(=O)N[C@@H](CCCN=C(N)N)C(=O)N[C@H](C(=O)N[C@@H](Cc1ccc(O)cc1)C(=O)N[C@H](C(=O)N[C@@H](Cc1cnc[nH]1)C(=O)N1CCC[C@H]1C(=O)N[C@@H](C)C(=O)O)C(C)C)C(C)C [Saralasin, [Sar^1, Ala^8] AII]				antagonism of AII effects on blood pressure [3]: one of the most potent competitive antagonists of the actions of AII; oral effectiveness (mammals and man; oral doses): oral doses being ineffective; duration of pharmacological effects (mammals and man; parenteral administration): relatively short-lasting; lowering of arterial pressure (mammals and man; when the elevated pressure is dependent on circulating AII): lower arterial pressure in mammals and man; pressor effects (mammals and man; when the pressure is not sustained by AII): generally elicits pressor effects when the pressure is not sustained by AII; effect on renal vasoconstriction by NSAID [2]: inhibit the renal vasoconstrictor effect of indomethacin and meclofenamate in dogs
CCCc1nc(-c2ccc3cc(OC)ccc3c2)c(C=O)n1Cc1ccc(-c2ccccc2-c2nn[nH]n2)cc1 [Example 11]	160	NA (Not active at 3 mg/kg or 30 mg/kg dosage tested)		

Continued, in another order:

IC50 (Angiotensin II Receptor) [nM]	Structure (SMILES)	Antihypertensive Effects in Renal Hypertensive Rats, Intravenous Activity [1]	Antihypertensive Effects in Renal Hypertensive Rats, Oral Activity [1]	also measured
29	CCCc1nc(-c2cc3ccccc3s2)c(C=O)n1Cc1ccc(-c2ccccc2-c2nn[nH]n2)cc1 [Example 7]	NA (Not active at 3 mg/kg or 30 mg/kg dosage tested)		
490	CCCc1nc(-c2ccc3c4c(cccc24)CC3)c(C=O)n1Cc1ccc(-c2ccccc2-c2nn[nH]n2)cc1 [Example 9]	NA (Not active at 3 mg/kg or 30 mg/kg dosage tested)		
170	CCCc1nc(-c2ccc(F)c3ccccc23)c(C=O)n1Cc1ccc(-c2ccccc2-c2nn[nH]n2)cc1 [Example 8]	NA (Not active at 3 mg/kg or 30 mg/kg dosage tested)		
99	CCCc1nc(-c2ccc3ccccc3c2)c(C=O)n1Cc1ccc(-c2ccccc2-c2nn[nH]n2)cc1 [Example 10]	NA (Not active at 3 mg/kg or 30 mg/kg dosage tested)	NA (Not active at 3 mg/kg or 30 mg/kg dosage tested)	
21	CCCc1nc(-c2cccc3ccccc23)c(C=O)n1Cc1ccc(-c2ccccc2-c2nnn[nH]2)cc1 [Example 1, 4-(naphth-1-yl)-2-n-propyl-1-[(2'-(1H-tetrazol-5-yl)biphenyl-4-yl)methyl]imidazole-5-carboxaldehyde]	+ (Significant decrease in blood pressure at 3.0 mg/kg or less)	+ (Significant decrease in blood pressure at 30 mg/kg or less)	
540	CCCc1nc(/C=C\c2ccc3ccccc3c2)c(C=O)n1Cc1ccc(-c2ccccc2-c2nn[nH]n2)cc1 [Example 97]	+ (Significant decrease in blood pressure at 3.0 mg/kg or less)		
560	CCCc1nc(/C=C/c2cccc3ccccc23)c(C=O)n1Cc1ccc(-c2ccccc2-c2nn[nH]n2)cc1 [Example 96]	+ (Significant decrease in blood pressure at 3.0 mg/kg or less)		
110	CCCc1nc(-c2cc3ccccc3o2)c(C=O)n1Cc1ccc(-c2ccccc2-c2nn[nH]n2)cc1 [Example 41]	+ (Significant decrease in blood pressure at 3.0 mg/kg or less)	+ (Significant decrease in blood pressure at 30 mg/kg or less)	
